Measured values published in US4122184A, “Benzimidazole insecticides” (priority 1977, dated 1978).
Where “and” joins values, the source holds several entries; their conditions need not be identical. Equal entries are not always repeated.

Legend:
[1] = test system: Southern Corn Rootworm Adults; experiment: Field trial, stomach poison test; type: in vivo; parameters: key: mortality rating on a 0 to 9 scale
Method in brief: (§1)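 Mortality scored 0–9 at 24, 48 and 72 h after insects fed on treated leaves. Leaves sprayed at 10 psi or dipped in test solutions, air-dried; 5 or 10 insects/dish, 1–2 replicates, typically 2–3 rates per compound. Values are average mortality per concentration.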

[2] = test system: Striped Cucumber Beetle Adults; experiment: Field trial, stomach poison test; type: in vivo; parameters: key: mortality rating on a 0 to 9 scale
Method in brief: as §1

Mexican Bean Beetle = Mexican Bean Beetle Test; type: in vivo, Epilachna varivestis (Coleoptera); conditions: 48 h
Method in brief: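 Snap bean leaves were sprayed on both surfaces with test formulation at a pre-determined level, dried, then infested with ten third-instar Mexican bean beetle larvae per leaf. Mortality (moribund counted as dead) and feeding were scored after 48 h on a rating scale. Malathion at 500 ppm served as reference.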

Two-spotted Spider Mite = Two-spotted Spider Mite test; type: in vivo, Tetranychus urticae (Acarina); conditions: 48 h
Procedure: The procedure in this test is the same as that in the previous aphid test, except that about 100 two-spotted spider mites from a stock colony raised on squash plants are transferred to a cut squash cotyledon. The mortality is estimated 48 hours after spraying. The same rating scale is used.

Squash Bug Adults = experiment: Field trial, contact poison test; type: in vivo; parameters: key: 0-9 rating: 0 = 0-10% mortality, 9 = 91-100% mortality
Method in brief: (§2)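 Contact spray, atomizer 10 psi, arm's length, several concentrations; infested plants in water bottles, stems wrapped in cellucotton, plants spaced apart. Scored 24, 48, 72 h; scale 0–9 by percent mortality.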

Oriental Cockroach = experiment: Oriental Roach Test; type: in vivo, Blatta orientalis (Orthoptera); conditions: 24 h
Method in brief: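 Ten late-instar (3-4 month) nymphs per cage, held at 70°-80° F., sprayed with 5 ml of insecticide formulation at a specified amount. Cockroaches kept unfed and unwatered; mortality counted 24 hours post-spray, with insects staying on the cage bottom after light shaking scored dead.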

Boll Weevil = Boll Weevil Test; type: in vivo, Anthonomus grandis (Coleoptera); conditions: 48 h
Text: The procedure is identical to that employed for the Mexican bean beetle and the Southern armyworm, except that 10 adult boll weevils are placed on cotton leaves that have been dipped into formulations of the test compounds. The same rating scale is used.

Southern Armyworm = Southern Armyworm Test; type: in vivo, Prodenia eridania (Lepidoptera); conditions: 48 h
Method in brief: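 Ten larvae (1-1.5 cm, reared on lima beans) placed on sprayed excised bean leaves in petri dishes; 100 ppm DDT-sprayed leaves as reference. Mortality scored 48 h after spraying, moribund counted dead, missing larvae counted alive, on a rating scale.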

[3] = test system: Red-Legged Grasshopper Adults; experiment: Field trial, contact poison test; type: in vivo
Method in brief: as §2

[4] = test system: Southern Corn Rootworm Adults; experiment: Field trial, contact poison test; type: in vivo
Method in brief: as §2

Bean Leaf Beetle [5] = experiment: Field trial, contact poison test; type: in vivo
Method in brief: as §2

Bean Leaf Beetle [6] = experiment: Field trial, stomach poison test; type: in vivo
Method in brief: as §1

Yellow Mealworm Larvae = experiment: Field trial, topical application; type: in vivo; parameters: key: 0 = 0-10% mortality, 9 = 91-100% mortality (0-9 scale)
Method in brief: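 1 μL benzimidazole solution of set microgram content applied topically to larvae or adults. Mortality read at 24, 48 and 72 h where applicable, rated 0-9 (0 = 0-10%, 9 = 91-100%); values are average mortality per concentration.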

“mixture of phenyl 2,6-bis(trifluoromethyl)-4-nitro-1-benzimidazolecarboxylate and phenyl 2,5-bis(trifluoromethyl)-1-benzimidazolecarboxylate” was tested, and the average mortality rating ([1]; 25 ppm) was 2 and 3, the average mortality rating ([1]; 50 ppm) was 4 and 2 and the average mortality rating ([1]; 100 ppm) was 6 and 8. It also gave an average mortality rating ([2]; 10 ppm) of 3, an average mortality rating ([2]; 25 ppm) of 4 and an average mortality rating ([2]; 50 ppm) of 4. For the same compound, the average mortality rating ([2]; 100 ppm) was 7, the mortality rating (Mexican Bean Beetle; 10 ppm) was 4 (41-50) and the mortality rating (Mexican Bean Beetle; 25 ppm) was 3 (31-40). For the same compound, the mortality rating (Mexican Bean Beetle; 50 ppm) was 7 (71-80), the mortality rating (Mexican Bean Beetle; 100 ppm) was 9 (91-100) and the mortality rating (Mexican Bean Beetle; 250 ppm) was 9 (91-100). For the same compound, the mortality rating (Mexican Bean Beetle; 500 ppm) was 9 (91-100), the mortality rating (Mexican Bean Beetle; 1000 ppm) was 9 (91-100) and the mortality rating (Two-spotted Spider Mite; 10 ppm) was 5.5. For the same compound, the mortality rating (Two-spotted Spider Mite; 25 ppm) was 2 (21-30), the mortality rating (Two-spotted Spider Mite; 50 ppm) was 8 (81-90) and the mortality rating (Two-spotted Spider Mite; 100 ppm) was 9 (91-100). The mortality rating (Two-spotted Spider Mite; 250 ppm) was 9 (91-100), the mortality rating (Two-spotted Spider Mite; 500 ppm) was 9 (91-100) and the mortality rating (Two-spotted Spider Mite; 1000 ppm) was 9 (91-100). For the same compound, the average mortality rating (Squash Bug Adults; 125 ppm) was 2, the average mortality rating (Squash Bug Adults; 250 ppm) was 2 and the average mortality rating (Squash Bug Adults; 500 ppm) was 6. The average mortality rating (Squash Bug Adults; 750 ppm) was 8, the mortality rating (Oriental Cockroach; 50 ppm) was 0 (0-10) and the mortality rating (Oriental Cockroach; 100 ppm) was “.5”. For the same compound, the mortality rating (Oriental Cockroach; 250 ppm) was 7 (71-80), the mortality rating (Oriental Cockroach; 500 ppm) was 6.5 and the mortality rating (Oriental Cockroach; 1000 ppm) was 5 (51-60). The mortality rating (Boll Weevil; 10 ppm) was 1 (11-20), the mortality rating (Boll Weevil; 25 ppm) was 5.5 and the mortality rating (Boll Weevil; 50 ppm) was 8 (81-90). The mortality rating (Boll Weevil; 100 ppm) was 9 (91-100), the mortality rating (Boll Weevil; 250 ppm) was 9 (91-100) and the mortality rating (Boll Weevil; 500 ppm) was 9 (91-100). The mortality rating (Boll Weevil; 1000 ppm) was 9 (91-100), the mortality rating (Southern Armyworm; 250 ppm) was 1 (11-20) and the mortality rating (Southern Armyworm; 500 ppm) was 1 (11-20). The mortality rating (Southern Armyworm; 1000 ppm) was 1 (11-20), the average mortality rating ([3]; 25 ppm) was 1 and the average mortality rating ([3]; 50 ppm) was 7. The average mortality rating ([4]; 25 ppm) was 0 (0-10 percent), the average mortality rating ([4]; 50 ppm) was 3 and the average mortality rating ([4]; 100 ppm) was 7. The average mortality rating (Bean Leaf Beetle [5]; 25 ppm) was 0 (0-10 percent), the average mortality rating (Bean Leaf Beetle [5]; 50 ppm) was 0 (0-10 percent) and the average mortality rating (Bean Leaf Beetle [5]; 100 ppm) was 4. For the same compound, the average mortality rating (Bean Leaf Beetle [6]; 10 ppm) was 1, the average mortality rating (Bean Leaf Beetle [6]; 25 ppm) was 0 (0-10 percent) and the average mortality rating (Bean Leaf Beetle [6]; 50 ppm) was 0 (0-10 percent). It also gave an average mortality rating (Yellow Mealworm Larvae; 0.03 μg/μl) of 3, an average mortality rating (Yellow Mealworm Larvae; 0.07 μg/μl) of 3 and an average mortality rating (Yellow Mealworm Larvae; 0.15 μg/μl) of 6.
`CCCCCCOC(=O)n1c(C(F)(F)F)nc2c([N+](=O)[O-])cc(C(F)(F)F)cc21` [E, n-hexyl 2,6-bis(trifluoromethyl)-4-nitro-1-benzimidazolecarboxylate] was tested, and the average mortality rating ([1]; 25 ppm) was 5, the average mortality rating ([1]; 50 ppm) was 5 and the average mortality rating ([1]; 100 ppm) was 5. For the same compound, the average mortality rating ([2]; 10 ppm) was 3, the average mortality rating ([2]; 25 ppm) was 1 and the average mortality rating ([2]; 50 ppm) was 5. It also gave an average mortality rating ([2]; 100 ppm) of 5, a mortality rating (Mexican Bean Beetle; 5 ppm) of 2.5 and a mortality rating (Mexican Bean Beetle; 10 ppm) of 7.5. For the same compound, the mortality rating (Two-spotted Spider Mite; 5 ppm) was “.5”, the mortality rating (Two-spotted Spider Mite; 10 ppm) was 8.5 and the average mortality rating (Squash Bug Adults; 125 ppm) was 0 (0-10 percent). It also gave an average mortality rating (Squash Bug Adults; 250 ppm) of 2, an average mortality rating (Squash Bug Adults; 500 ppm) of 3 and an average mortality rating (Squash Bug Adults; 750 ppm) of 6. For the same compound, the mortality rating (Oriental Cockroach; 500 ppm) was 8.5, the mortality rating (Boll Weevil; 25 ppm) was 6.5 and the mortality rating (Southern Armyworm; 500 ppm) was 5.0. It also gave a mortality rating (Southern Armyworm; 1000 ppm) of 7.5, an average mortality rating ([3]; 10 ppm) of 3 and an average mortality rating ([3]; 25 ppm) of 8. For the same compound, the average mortality rating ([3]; 50 ppm) was 7, the average mortality rating ([4]; 25 ppm) was 4 and the average mortality rating ([4]; 50 ppm) was 9 (91-100 percent mortality). The average mortality rating ([4]; 100 ppm) was 8, the average mortality rating (Bean Leaf Beetle [5]; 25 ppm) was 0 (0-10 percent) and the average mortality rating (Bean Leaf Beetle [5]; 50 ppm) was 0 (0-10 percent). For the same compound, the average mortality rating (Bean Leaf Beetle [5]; 100 ppm) was 8, the average mortality rating (Bean Leaf Beetle [6]; 10 ppm) was 0 (0-10 percent) and the average mortality rating (Bean Leaf Beetle [6]; 25 ppm) was 1. The average mortality rating (Bean Leaf Beetle [6]; 50 ppm) was 0 (0-10 percent), the average mortality rating (Yellow Mealworm Larvae; 0.03 μg/μl) was 2 and the average mortality rating (Yellow Mealworm Larvae; 0.07 μg/μl) was 3. For the same compound, the average mortality rating (Yellow Mealworm Larvae; 0.15 μg/μl) was 4.
